The values that follow come from ChEMBL document CHEMBL1132276, “Development of predictive retention-activity relationship models of tricyclic antidepressants by micellar liquid chromatography” (J Med Chem, 1999).

The nature of data set [1]: Protonation constant of the compound. The class given is ADME.
A short description of data set [2]: physchem. The conditions noted are these: octanol/water.
Data set [3] can be described thus: physchem. As to conditions: buffer, pH 7.4.
Description: log P values determined at pH 7.4
The nature of data set [4]: log k (capacity factor) was measured by micellar liquid chromatography in Brij35 medium. As to conditions: 0.04 M Brij35.
Data set [5] is described as follows: Partition coefficient (logP). The class given is physicochemical. The conditions noted are these: octanol/water.
Data set [6] in a line: log P value at pH 7.4. The class given is physicochemical. The conditions noted are these: buffer.
A short description of data set [7]: Protonation constant by using Brij35 as a medium. The class given is ADME.
The target in data set [8] is Serotonin (5-HT) receptor. The data set can be described thus: Compound was tested for its inhibitory activity against 5-hydroxytryptamine receptor. The class given is protein assay, Rattus norvegicus.
Data set [9] can be described thus: Half life period is estimated. The class given is ADME.
Data set [10] is described as follows: Volume of distribution in the plasma fluid was determined. The class given is ADME, organism-based.
The nature of data set [11]: Therapeutic plasma levels for the compound was evaluated. The class given is ADME, cell-free.
The target in data set [12] is T1, Alpha-1A adrenergic receptor (Rattus norvegicus, UniProt P43140).
T1 sequence (P43140 whole entry): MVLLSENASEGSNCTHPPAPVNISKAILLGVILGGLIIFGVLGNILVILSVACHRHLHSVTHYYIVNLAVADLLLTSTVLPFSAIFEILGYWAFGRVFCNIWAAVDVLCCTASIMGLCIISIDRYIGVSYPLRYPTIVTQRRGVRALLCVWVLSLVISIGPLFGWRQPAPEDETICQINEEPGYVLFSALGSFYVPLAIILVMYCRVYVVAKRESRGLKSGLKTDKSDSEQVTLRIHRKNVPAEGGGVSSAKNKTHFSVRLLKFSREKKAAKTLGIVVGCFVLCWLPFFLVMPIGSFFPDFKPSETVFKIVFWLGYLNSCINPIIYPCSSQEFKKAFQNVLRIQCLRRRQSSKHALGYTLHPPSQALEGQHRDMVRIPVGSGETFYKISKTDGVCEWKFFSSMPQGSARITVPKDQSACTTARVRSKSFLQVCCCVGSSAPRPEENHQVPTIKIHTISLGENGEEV
As to the kind of experiment: Compound was tested for its inhibitory activity against Alpha-1 adrenergic receptor.

Data set [13] in a line: Compound was tested for its binding affinity towards brain (Hippocampus) Adenylate cyclase. Details: species or system Cavia porcellus.
Data set [14] can be described thus: Compound was tested for its binding affinity towards brain (neocortex) Adenylate cyclase. More on the design: species or system Cavia porcellus.
The next data set has as its target Histamine H1 receptor (Rattus norvegicus, UniProt P31390). As to the kind of experiment: Compound tested for its inhibitory activity against Histamine H1 receptor.
The target of a further data set is Histamine H2 receptor (Cavia porcellus, UniProt P47747). The data set can be described thus: Inhibitory activity against brain adenylate cyclase Histamine H2 receptor. The class given is functional.
A short description of data set [15]: Compound was tested for its inhibitory activity against Noradrenaline receptor. Details: species or system Rattus norvegicus.
The next data set is described as follows: in vivo. The conditions noted are these: plasma.
The conditions of data set [16]: buffer, pH 7.4.
Description: log P values determined at pH 7.4
The conditions of data set [17]: octanol/water.

Chain of Histamine H1 receptor (P31390 whole entry): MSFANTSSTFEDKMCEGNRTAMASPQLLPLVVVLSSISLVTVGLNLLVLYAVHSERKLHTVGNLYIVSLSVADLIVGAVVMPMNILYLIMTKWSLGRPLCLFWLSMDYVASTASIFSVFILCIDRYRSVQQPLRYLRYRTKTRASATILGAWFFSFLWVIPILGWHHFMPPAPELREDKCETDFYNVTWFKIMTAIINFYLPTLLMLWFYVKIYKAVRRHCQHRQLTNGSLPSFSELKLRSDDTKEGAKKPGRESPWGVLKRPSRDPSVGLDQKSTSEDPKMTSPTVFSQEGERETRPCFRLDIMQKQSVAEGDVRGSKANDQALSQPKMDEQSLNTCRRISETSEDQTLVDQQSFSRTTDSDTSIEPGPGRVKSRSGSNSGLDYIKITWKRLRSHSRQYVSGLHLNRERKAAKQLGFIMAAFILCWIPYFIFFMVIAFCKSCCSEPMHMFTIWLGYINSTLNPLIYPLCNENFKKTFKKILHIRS
Chain of Histamine H2 receptor (P47747 whole entry): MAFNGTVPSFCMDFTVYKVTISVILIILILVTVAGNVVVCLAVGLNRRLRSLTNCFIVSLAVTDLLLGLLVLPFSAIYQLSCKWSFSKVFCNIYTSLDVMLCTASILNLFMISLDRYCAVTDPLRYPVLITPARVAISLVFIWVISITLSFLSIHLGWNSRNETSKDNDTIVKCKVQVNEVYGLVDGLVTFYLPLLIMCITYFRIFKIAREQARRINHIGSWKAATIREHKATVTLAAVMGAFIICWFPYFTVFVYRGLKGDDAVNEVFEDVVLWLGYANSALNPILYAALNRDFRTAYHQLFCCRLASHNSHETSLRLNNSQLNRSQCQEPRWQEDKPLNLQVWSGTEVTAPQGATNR
Description for in vivo: Plasma clearance for the compound was determined.

Compound `CN(C)CCC=C1c2ccccc2C(C)(C)c2ccccc21` displayed a pKa in [1] of 7.38. The logP in the data set “physchem [2]” came to 5.12. Also, the logD in the data set “physchem [3]” is 4.83. Moreover, the “Log K” value in data set [4] was 1.97.

Take `O=C(O)CCCCCCNC1c2ccccc2CCc2ccccc21` [AMINEPTINE]: in data set [5], the logP was 2.44. For the same compound, the logD in data set [6] stood at 2.26. The compound also displayed a pKa in data set [7] of 5.24. Further, the “Log K” value in data set [4] came to 1.09.

`CN(C)CCC=C1c2ccccc2CCc2ccccc21` [AMITRIPTYLINE]: the IC50 in data set [8] was determined as 0.044 µM; in [12] it was 0.02 µM; at Histamine H1 receptor it was 0.02 µM; against Histamine H2 receptor, 0.66 µM; in data set [15], 0.041 µM. Besides, the half-life in [9] was 27.5 h. The compound also returned a Vd in data set [10] of 15 L/kg. This compound also yielded a T.P.L in data set [11] of 180 ng/mL. The same compound registered a pKa in data set [1] of 9.42. In addition, the Ki in data set [13] was determined as 0.053 µM; in data set [14] it was 0.06 µM. Besides, in “in vivo”, the clearance is 1200 mL/min. Also, the logP in the data set “physchem [2]” stood at 4.64. Moreover, the logD in “physchem [3]” was 2.62. Further, the “Log K” value in data set [4] worked out at 1.84.

For `Clc1ccc2c(c1)C(N1CCNCC1)=Nc1ccccc1O2` [AMOXAPINE], the pKa in [1] is 7.6. The logD in data set [16] came out at 3.48. For the same compound, in the data set “physchem [2]”, the logP was 3.89. Also, the “Log K” value in data set [4] is on record as 1.63.

The compound `CN(C)CCCN1c2ccccc2CCc2ccc(Cl)cc21` [CLOMIPRAMINE] registered a Vd in data set [10] of 13.5 L/kg. For the same compound, the T.P.L in data set [11] is 90 ng/mL. The same compound registered a pKa in data set [1] of 9.38. Moreover, the Ki in data set [13] was 0.055 µM; in [14], 0.043 µM. Besides, the IC50 at Histamine H2 receptor came to 0.72 µM; in data set [15], 0.046 µM. This compound also displayed a logP in [17] of 5.19. In the data set “in vivo”, the clearance was 1210 mL/min. The same compound showed a logD in the data set “physchem [3]” of 3.32. Also, the “Log K” value in [4] stood at 1.89.

As to `CNCCCN1c2ccccc2CCc2ccccc21` [DESIPRAMINE], the half-life in data set [9] was 37.5 h. This compound also gave a Vd in [10] of 22 L/kg. In data set [11], this compound came in with a T.P.L of 212.5 ng/mL. The Ki is 0.35 µM in data set [13] and 0.32 µM in [14]. The IC50 against Histamine H2 receptor was found to be 3.8 µM; in data set [15] it was 0.002 µM. Also, the “Log K” value in [4] amounted to 1.46.

In turn, `CN(C)CCC=C1c2ccccc2CSc2ccccc21` [DOTHIEPIN] came in with a pKa in [1] of 9.25. Further, the logP in “physchem [2]” came out at 4.52. Further, the logD in “physchem [3]” was found to be 2.66. Further, the “Log K” value in data set [4] came to 1.74.

Consider `CN(C)CC/C=C1/c2ccccc2COc2ccccc21` [DOXEPIN], for which the half-life in data set [9] was 16.5 h. In data set [1], the pKa worked out at 9. Also, the IC50 in data set [12] came out at 0.01 µM; against Histamine H2 receptor it was 1.6 µM; in [15], 0.065 µM. Besides, the Ki in data set [13] is 0.17 µM; in data set [14], 0.19 µM. The same compound gave a clearance in “in vivo” of 850 mL/min. In addition, the logP in the data set “physchem [2]” was 3.88. In the data set “physchem [3]”, this compound had a logD of 2.27. Besides, in [4], the “Log K” value is reported as 1.69.

`CN(C)CCCN1c2ccccc2CCc2ccccc21` [IMIPRAMINE]: the Vd in data set [10] was 30 L/kg. This compound also returned a T.P.L in data set [11] of 275 ng/mL. The Ki in data set [13] and in data set [14] was 0.16 µM in each case. Besides, the IC50 at Histamine H1 receptor came to 0.06 µM; against Histamine H2 receptor, 1.9 µM; in data set [15], 0.046 µM. For the same compound, the “Log K” value in data set [4] was determined as 1.8.

Take `CN1CCN(C2=Nc3ccccc3Oc3ccc(Cl)cc32)CC1` [LOXAPINE]: in [1], the pKa is 6.6. For the same compound, the “Log K” value in [4] stood at 1.86.

Consider `CNCCCC12CCC(c3ccccc31)c1ccccc12` [MAPROTILINE], for which, in [1], the pKa worked out at 10.5. The logP in “physchem [2]” came to 4.22. The logD in “physchem [3]” came to 1.12. Also, the “Log K” value in data set [4] worked out at 1.47.

Turning to `CN1CCN2c3ccccc3Cc3ccccc3C2C1` (stereo not given) [MIANSERIN], in data set [9], the half-life is 25 h. In [10], this compound displayed a Vd of 16 L/kg. The pKa in data set [1] came to 7.1. Also, the Ki turned out to be 0.065 µM in data set [13] and 0.071 µM in [14]. The IC50 on Histamine H2 receptor was found to be 0.88 µM. This compound came in with a logP in the data set “physchem [2]” of 4.26. The same compound yielded a logD in the data set “physchem [3]” of 4.08. Also, in [4], the “Log K” value was 1.87.

`CNCCC=C1c2ccccc2CCc2ccccc21` [NORTRIPTYLINE]: the half-life in [9] was 35.5 h. The compound further returned a Vd in [10] of 35 L/kg. Besides, the pKa in [1] is 9.7. Moreover, the IC50 in data set [12] turned out to be 0.04 µM; against Histamine H1 receptor it was 0.05 µM; against Histamine H2 receptor it was 7 µM; in data set [15], 0.009 µM. In addition, the Ki in [13] is 0.45 µM; in [14], 0.28 µM. The clearance in “in vivo” was 1320 mL/min. Also, the lipophilicity (logP) in the data set “physchem [2]” is 4.32. The logD in “physchem [3]” is 2.02. For the same compound, in [4], the “Log K” value amounted to 1.52.

In turn, `c1ccc2c(c1)CCc1ccccc1N2C1CN2CCC1CC2` (stereo not given) [QUINUPRAMINE] returned a pKa in data set [7] of 7.85. In “physchem [2]”, this compound gave a logP of 4.94. The compound further returned a logD in “physchem [3]” of 1.36. Moreover, in data set [4], the “Log K” value is 1.62.

Regarding `CC(CN(C)C)CN1c2ccccc2CCc2ccccc21` (stereo not given) [TRIMIPRAMINE], the pKa in data set [7] came to 6.77. In data set [16], this compound gave a logD of 4.64. In the data set “physchem [2]”, this compound came in with a logP of 4.73. For the same compound, the “Log K” value in data set [4] is on record as 1.86.

As a reminder, the pKa is the negative logarithm of the acid dissociation constant. By logP is commonly meant a log measure of how a compound divides between an organic and an aqueous phase. Broadly, the logD is lipophilicity at a set pH, counting ionised and neutral species. Usually IC50 stands for the concentration at which inhibition is half-maximal. High values mean lower potency, low ones higher potency. As a reminder, the half-life is the time needed for the level to fall by half in the phase considered. A word on the Vd: it is a proportionality between amount in the body and measured concentration, not a real space. Lower therefore signals little distribution into tissue. By Ki is commonly meant the dissociation constant of the complex between target and ligand, obtained from inhibition or displacement. A high value points to a looser hold on the target. As usually defined, the clearance is the volume of plasma or blood freed of the substance per unit of time.
